# Source: ChEMBL document CHEMBL2439962, “Fighting Obesity and Metabolic Disorders with MGAT-2 Inhibitors” (ACS Med Chem Lett, 2013)
# Key:
# [1] = biological target: T1, 2-acylglycerol O-acyltransferase 2 (Homo sapiens, UniProt Q3SYC2); assay: Inhibition of human MGAT2 by SPA assay
# [2] = biological target: T1, 2-acylglycerol O-acyltransferase 2; assay: Inhibition of human MGAT2 by LC/MS assay
# T1 sequence (Q3SYC2 whole entry): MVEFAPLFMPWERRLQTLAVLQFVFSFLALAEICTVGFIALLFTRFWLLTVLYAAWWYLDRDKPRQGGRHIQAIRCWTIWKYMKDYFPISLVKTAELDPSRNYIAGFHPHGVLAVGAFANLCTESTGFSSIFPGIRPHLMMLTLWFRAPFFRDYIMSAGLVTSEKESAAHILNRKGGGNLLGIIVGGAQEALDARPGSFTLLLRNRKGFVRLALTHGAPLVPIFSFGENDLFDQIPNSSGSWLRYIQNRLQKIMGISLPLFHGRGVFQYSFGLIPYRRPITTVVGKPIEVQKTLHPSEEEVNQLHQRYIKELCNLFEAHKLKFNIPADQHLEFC
IC50 [1],IC50 [2],Structure (SMILES)
8 nM,2 nM,Cc1ccc(C2=C(C(=O)Nc3ccno3)C(=O)N[C@@](c3ccc(OCCCC(F)(F)F)cc3)(C(F)(F)F)C2)cc1
9 nM,7 nM,Cc1ccc(C2=C(C(=O)Nc3ccc(-c4nnn[nH]4)cc3)C(=O)N[C@@](c3ccc(OCCCC(F)(F)F)cc3)(C(F)(F)F)C2)cc1
